Experimental data as given in US20230201203A1, “METHODS OF TREATMENT USING A[…] PHARMACEUTICAL FORMULATIONS COMPRISING ANTIFOLATES” (EMPHASCIENCE, INC., priority 2020, published 2023).

Experiment: in vitro
Details: human

SMILES: Nc1nc2[nH]cc(CCc3ccc(C(=O)N[C@@H](CCC(=O)O)C(=O)O)cc3)c2c(=O)[nH]1 [pemetrexed]
- CC50: ≥ 74 µg/mL
